Source: patent US20230190933A1, “Immunologically Active Peptide-Biliverdin Conjugate, Preparation Method Therefor and Application Thereof” (priority 2020, published 2023)
Where no end group is shown, it is not given here.

Columns and labels:
[1] = system: cervical cancer U14 mouse model; conditions: 5 mg kg^-1 intraperitoneally; 2nd, 4th and 7th day
[2] = cyclic (three) photothermal heating curves; type: physicochemical; conditions: compared with biliverdin molecule; three heating cycles
[3] = system: Human Umbilical Vein Endothelial Cells HUVEC; assay: MTT colorimetric method, incubation in the dark; type: cell-based; conditions: different concentration gradients
Procedure: The biliverdin-[…] conjugate was prepared from biliverdin molecule and […] according to the chemical synthesis method of Example 1. […] The prepared conjugates with different concentration gradients were incubated with Human Umbilical Vein Endothelial Cells HUVEC in the dark, and the biological safety of the conjugates was evaluated by MTT colorimetric method.

[4] = system: mouse colon cancer cells ct-26
Procedure: According to the standard tumor mouse modeling method, C57BL/6 mouse model was established, and the mouse colon cancer cells ct-26 were inoculated subcutaneously, and then these mice were fed in SPF environment. […] The mice were divided into the following four groups: blank group (normal saline), conjugate group (no light group) and conjugate group (light group), with 10 mice in each group. These mice were administered once on the 1st, 3rd, 8th and 12th day with the administration concentration being 2 mg kg^-1. Wherein, the mice of the conjugate (light group) were irradiated with laser once 4 hours after administration on the first day, and the parameters were as follows: the laser intensity was 0.5 W/cm^2 and the laser wavelength was 808 nm. The tumor inhibition of mice during the whole treatment cycle (the cycle is 45 days) was monitored.

[5] = system: in-situ model of pancreatic cancer Pan02; conditions: 4 mg kg^-1, presence and absence of light (730 nm, 0.5 W/cm^2), 15th day
lung cancer Lewis = assay: combination of photothermal immunotherapy and immunotherapy (interferon); type: in vivo; conditions: conjugate 3 mg kg^-1 combined with interferon 20U/ mouse, initial volume 300 mm^3
Procedure: (§1) The biliverdin-[…] conjugate was prepared from biliverdin molecule and […] according to the above chemical synthesis method.

skin melanoma B16-F10 = assay: as above; type: in vivo; conditions: conjugate 3 mg kg^-1 combined with interferon 20U/ mouse, initial volume 300 mm^3
Procedure: as §1

[6] = system: mouse breast cancer cells 4T1; conditions: absence of light; 100 uL of 0.2 mg mL^-1 intraperitoneally on day 1, 2, 4, 8; 28 days
[7] = temperature rise in vitro under laser irradiation; type: physicochemical; conditions: 0.2 mg mL^-1, 730 nm laser, 0.3 W/cm^2, 10 min
Procedure: Firstly, biliverdin-Mn metal complex was chemically synthesized by biliverdin and excess manganese acetate tetrahydrate, and the biliverdin-Mn-[…] conjugate was prepared from biliverdin-Mn metal complex and […] according to the aforementioned chemical synthesis method. […] 1 mL of this conjugate (at a concentration of 0.2 mg mL^-1) was irradiated at 730 nm laser (0.3 W/cm^2) for 10 min, and the temperature rise of the conjugate solution was investigated.

## biliverdin-EQLESIINFEKLTE conjugate [Example 13]
[1]
  immune effect (CD4+T and CD8+T cells in spleen and draining lymph nodes): has immune effect

## biliverdin-SIINFEKL conjugate [Example 1]
[2]
  cyclic stability of photothermal heating: better cyclic stability
  photothermal heating effect: better heating effect
[3]
  cytotoxicity (cell activity): no obvious cytotoxicity

## biliverdin-QQKFQFQFEQQ conjugate [Example 9]
[4]; 2 mg kg^-1 on day 1, 3, 8, 12, 45 day cycle
  therapeutic effect of tumor photothermal immunotherapy (tumor inhibition curve): good therapeutic effect
[4]; light group, 2 mg kg^-1, 808 nm 0.5 W/cm^2, 29th day after treatment
  tumor clearance: all the mice tumors were cleared
[4]; light group, monitored from the 30th day to the 45th day
  tumor recurrence: can effectively prevent tumor recurrence

## biliverdin-Ga-FKFEFKFE conjugate [Example 10]
[5]
  immune promoting factor content in tumor (IFN-7): up-regulate the organism’s immunity
  immune suppressing factor content in tumor (IL-4 and IL-10): down-regulate the immunosuppressive behavior

## biliverdin-PDRAHYNI conjugate [Example 15]
Lung cancer Lewis
  combined inhibitory effect on tumor: significantly enhances the anti-tumor effect
Skin melanoma B16-F10
  combined inhibitory effect on tumor: significantly enhances the anti-tumor effect

## biliverdin-IMDQVPFSV conjugate [Example 8]
[6]
  anti-tumor behavior (tumor volume): potential immune anti-tumor activity

## biliverdin-Mn-YLEPGPVTA conjugate [Example 7]
[7]
  photo-thermal conversion effect (temperature rise): good photo-thermal conversion effect
